US7955852B2, “Expansion of renewable stem cell populations” (Gamida Cell Ltd., priority 2002, dated 2011)
Where “and” joins values, the source holds several entries; their conditions need not be identical. Equal entries are not always repeated.

Legend:
mononuclear cells = experiment: Ex-vivo expansion of whole mononuclear cell fraction (MNC) cultures; FACS of reselected CD34+ cells; format: cell-based, human; details: 10^−6 M + cytokines; for % CD34/Lin−: reselected CD34+ fraction, listed as RAR antagonist
Method: Human blood cells were obtained from umbilical cord blood from female patients following full-term, normal delivery (informed consent was obtained).
Samples were collected and processed within 12 hours postpartum. Blood was mixed with 3% Gelatin (Sigma, St. Louis, Mo.), sedimented for 30 minutes to remove most red blood cells. The leukocyte-rich fraction was harvested and layered on a Ficoll-Hypaque gradient (1.077 gram/ml; Sigma), and centrifuged at 400 g for 30 minutes. The mononuclear cell fraction in the interface layer was collected, washed three times and resuspended in phosphate-buffered saline (PBS) solution (Biological Industries) containing 0.5% bovine serum albumin (BSA, Fraction V; Sigma).
Alternatively, whole mononuclear fraction cells (MNC) were isolated, cultured and supplemented with cytokines, as above.
CD34^+ purified and whole MNC cultures were prepared and maintained as described above. AGN 194310 RAR antagonist was added to test cultures at concentrations ranging from 1×10^−3-1×10^−11 M [or 410 μg/l to 4.1×10^−5 μg/l]. The antagonist was added for a predetermined, limited period, for up to three weeks or continuously during the entire culture period.
CD34 surface expression on short and long-term cultures initiated either with purified CD34^+ cells or the entire MNC fraction was determined as follows: CD34^+ cells were positively reselected (Miltenyi kit) and counted. Purity was confirmed by subsequent FACS and cell morphology analysis.
Reselected CD34^+ cell subsets were stained for the following combination of antigens: CD34PE/CD38FITC and CD34PE/38, 33, 14, 15, 3, 4, 61, 19 (Lin) FITC. The fraction positive for CD34 and negative for CD38 was defined as CD34^+CD38^−. The fraction positive for CD34 and negative for LIN was defined as CD34^+Lin^− cell fraction.
(§1) Total cell counts, numbers of CD34^+ cells and subsets, and CFU numbers are presented as cumulative numbers, with the assumption that the cultures had not been passaged; i.e., the number of cells per ml were multiplied by the number of passages performed.

CD34+ cells = experiment: Colony forming unit (CFU / LTC-CFUc) ability of ex-vivo CD34+ cell cultures; format: cell-based, human; details: for No. of CFU*103: 10^−5 M, treated for one week only
Method: as §1
Cells were cloned in semi-solid, methylcellulose-containing medium supplemented with 2 IU/ml erythropoietin (Eprex, Cilag AG Int., Switzerland), stem cell factor and IL-3, both at 20 ng/ml, and G-CSF and GM-CSF, both at 10 ng/ml (all from Perpo Tech). Cultures were incubated for 14 days at 37° C., 5% CO2 in a humidified atmosphere.
Briefly, the ability of the cultures to maintain self-renewal was measured by determination of the content of colony forming unit cells in the long and extended long-term cultures (LTC-CFUc), as described in the references hereinabove.

primary hepatocytes = experiment: Primary hepatocyte cultures; α-fetoprotein/albumin immunostaining and Giemsa morphology; format: cell-based, mice; details: for oval cell population (Giemsa) / α-fetoprotein (AFP) expression vs control: 10^−5 M, three week old primary cultures, no cytokines
Method: Three intact livers were harvested from 3 week old VLVC female mice (Harlan Laboratories, Jerusalem, Israel), dissected and washed twice with DMEM (Beit Haemek, Israel), incubated with DMEM in the presence 0.05% collagenase for 30 minutes at 37° C., ground and passed through a 200 μm mesh sieve, yielding individual hepatocytes. Cells were washed twice and viability was ascertained with trypan blue. Cells were plated in collagen-coated, 35 mm tissue culture plates at a density of 4-×10^4 live cells/ml in F12 media (containing 15 mM Hepes, 0.1% glucose, 10 mM sodium bicarbonate, 100 units/ml penicillin-streptomycin, glutamine, 0.5 units/ml insulin, 7.5 m cg/ml hydrocortisone, and 10% fetal bovine serum). Medium was changed after 12 hours, the cells were washed twice with phosphate buffered saline (PBS) and new medium was added. Medium was changed twice a week.
Hepatocytes were also grown in the presence of Epidermal Growth Factor (EGF), Platelet-Derived Growth Factor β chain (PDGF-BB), Fibroblast growth Factors (FGF4) and Hepatocyte Growth Factor (HGF), at 20-50 ng/ml each, for the entire culturing period according to the method of Schwartz et al. (Schwartz R E, Reyes M, Koodie L, Jiang Y, Blackstad M, Lund T, Lenvik T, Johnson S, Hu W S, Verfaillie C M. Multipotent adult progenitor cells from bone marrow differentiate into functional hepatocyte-like cells. J Clin Invest. 2002; 109 (10): 1291-302). Hepatocytes were also grown in serum free medium according to the method of Runge et al. (Runge D, Runge D M, Jager D, Lubecki K A, Beer Stolz D, Karathanasis S, Kietzmann T, Strom S C, Jungermann K, Fleig W E, Michalopoulos G K. Serum-free, long-term cultures of human hepatocytes: maintenance of cell morphology, transcription factors, and liver-specific functions. Biochem Biophys Res Commun. 2000; 269(1): 46-53).
In all of the above-mentioned hepatocytes culture conditions, cells are grown in the presence or absence of the retinoic acid antagonist AGN 194310 at concentrations ranging from 10^−5 M to 10^−9 M.
After a period of 3 weeks, cultures treated with 10^−5 M antagonist were detached with 0.25% trypsin, split and replated at a 1:2 ratio. The cells were either immunostained as described below, or visualized with Giemsa staining.
Murine hepatocyte cultures supplemented with EGF and HGF were evaluated as primary cultures, or following first and second passages. First passage cultures were grown for 2 weeks, split 1:2 and immunostained 8 days later for the presence of albumin, as described below. Second passage cultures were similarly grown for 2 weeks, split 1:2, and grown for an additional week, then split 1:4 and similarly immunostained 4 days later.
Ex-vivo expanded cells and hepatocytes were stained with Giemsa stain, according to manufacturer's instructions (Shandon, Pittsburg, Pa.) for 4 minutes at room temperature, washed in buffer solution for 4 minutes and washed 3-4 times with rinse solution.
Hepatocytes were probed for expression of α-fetoprotein (AFP) using a rabbit polyclonal antibody raised against a recombinant protein of human origin that cross-reacts with AFP from mouse (H-140 Santa Cruz Technology, Santa Cruz, Calif.), and albumin using a rabbit antiserum to mouse albumin (Cappel-ICN, Aurora, Ohio). Cells were fixed in methanol at −20° C. for 10 minutes, rinsed with PBS for 5 minutes, and permeabilized with 0.1% triton-X (Sigma, Jerusalem, Israel) in PBS for 5 minutes. The cells were then washed with Tris buffer saline (TBS) for 5 minutes and incubated with 1% bovine serum albumin (BSA) in PBS for 10 minutes. Endogeneous peroxidases were inactivated by incubation with peroxidase block (Envision, Dako, Carpinteria, Calif.) for 5 minutes, at room temperature. Cells were incubated with antibodies raised in rabbit against mouse albumin (at a dilution of 1:100); or against α-fetoprotein (at a dilution of 1:25) for 30 minutes. […]

[1] = listed as retinoic acid antagonist

CCc1ccc(C2=CC(C)(C)Sc3ccc(C#Cc4ccc(C(=O)O)cc4)cc32)cc1 [AGN 194310, 4-[[4-(4-ethylphenyl)-2,2-dimethyl-(2H)-thiochroman-6-yl]-ethynyl]benzoic acid]
No of CD34+/Lin− × 10^4 (cumulative value) (mononuclear cells; 2 weeks): 132.5 × 10^4
No of CD34 cells × 10^4 (cumulative value) (mononuclear cells; 2 weeks): 169 × 10^4
% CD34/Lin− (mononuclear cells; 2 weeks): 78% and 78.4%
No of CD34+/Lin− × 10^4 (cumulative value) (mononuclear cells; 5 weeks): 237.8 × 10^4
No of CD34 cells × 10^4 (cumulative value) (mononuclear cells; 5 weeks): 985 × 10^4
% CD34/Lin− (mononuclear cells; 5 weeks): 24% and 24.1%
No. of CFU*103 (CD34+ cells; week 13): 66355 *103
No. of CFU*103 (CD34+ cells; week 20): 0 *103
increase of CFU content (CD34+ cells; extended long-term (8-10 week) cultures, pulse-treatment or continuous treatment): 15 ×10^4
increase in CFU content as compared to control (CD34+ cells; long-term (6 weeks) cultures pulsed for the first 3 weeks): 5 fold
increase in CFU content as compared to control (CD34+ cells; long-term cultures, antagonist administered continuously): 5 fold
mixed colony forming unit (CFU-mix) content vs control (CD34+ cells; long-term cultures, pulsed first 3 weeks or continuous (FIG. 7)): dramatic increase
number of hepatocytes in second passage cultures vs controls (primary hepatocytes; 10^−5 M to 10^−7 M, second passage, EGF and HGF supplemented): Significantly greater numbers of hepatocytes
oval cell population (Giemsa) (primary hepatocytes): marked increase
α-fetoprotein (AFP) expression vs control (primary hepatocytes): marked increase
oval cell population (Giemsa) (primary hepatocytes; [1]): large population
α-fetoprotein (AFP) expression vs control (primary hepatocytes; [1]): increase
oval cells in first passage cultures (primary hepatocytes; first passage, EGF and HGF supplemented): numerous islets of oval cells
α-fetoprotein staining (primary hepatocytes; three weeks old primary cultures supplemented with EGF and HGF): Significant strong AFP staining
